Test results from the NIST ThermoML archive (doi:10.1021/acs.jced.5b00985).
± gives the expanded uncertainty stated by the source.

Experiment: mn = molality of the nth substance listed, in mol/kg
Details: 100.8 kPa, Liquid, Pycnometric method

In the case of `[NH4+].[O]=[V](=[O])[O-]` [ammonium vanadate] + O, the mass density (313.15 K, m1 = 0.0946) is reported as 1002.1 ± 2 kg/m3, the mass density (343.15 K, m1 = 0.2563) is reported as 1001.1 ± 2.3 kg/m3 and the mass density (343.15 K, m1 = 0.2612) is reported as 1001.3 ± 2.1 kg/m3.
